# Assay results as given in PMC13192270, “RhlR quorum-sensing receptor ligand sensitivity regulates the differential expression of phenazine genes in Pseudomonas aeruginosa” (Journal of Bacteriology, 2026).
# System: ΔrhlI strain expressing WT RhlR
# Experiment: RNA-seq gene expression
# Assay type: cell-based, Pseudomonas aeruginosa
# Parameters: opmD Expression value / mexI Expression value / mexH Expression value / mexG Expression value / lasB Expression value / rhlA Expression value / rhlB Expression value / rhlR Expression value / lecB Expression value / fhp Expression value / chiC Expression value / hcnA Expression value / mvfR Expression value / katB Expression value / norC Expression value / norB Expression value / katA Expression value: unit not given here
# Settings: 2 µM C4HSL
# Method: To determine the effects of hypo- and hypersensitivity to C4HSL on RhlR-dependent transcription activation in P. aeruginosa, we performed RNA-seq on ΔrhlI strains expressing WT RhlR, RhlR T58L, and RhlR A44M in the presence of 2 µM C4HSL. We chose this approach to better control the levels of C4HSL across samples. All gene expression analyses were done relative to a ΔrhlI strain without exogenous supplementation of AHL. Thus, we examined the total increase in C4HSL-dependent gene regulation. We observed increased rhlA RNA levels in strains expressing WT RhlR and the RhlR T58L variant compared to ΔrhlI without C4HSL or a strain expressing the RhlR A44M variant (Table 2; Table S1). […] To corroborate our RNA-seq data, we built an rhlA promoter fusion to mScarlet and assayed reporter levels in the same genetic backgrounds as our transcriptomic experiment (Fig. S7D). Strains expressing hypersensitive RhlR variants produced similar levels of fluorescent signal relative to the WT strain, while a strain expressing a hyposensitive RhlR variant had diminished levels of fluorescent reporter (Fig. S7D).
# A total of […] of overnight cultures was back diluted 1:100 in 20 mL of fresh LB media and incubated for 5 h at 37°C with shaking. Cells were harvested by centrifugation, and pellets were frozen until RNA extraction. RNA was extracted using the Invitrogen PureLink RNA Mini Kit. Pellets were resuspended in 100 µL lysozyme solution containing 10 mM Tris-HCl pH 8.0, 0.1 mM EDTA, and 1 mg/mL lysozyme. Five microliters of 1% SDS was added, and the solution was mixed with a vortex and incubated at room temperature for 5 min. A total of 350 µL lysis buffer (Invitrogen) was added with 10 µL 2-mercaptoethanol for each 1 mL of lysis buffer and vortexed. Cells were lysed by bead beating (BioSpec 0.1 MM Zirconia/Silica Beads) for two rounds of 50 s. Lysed cells were transferred to fresh microcentrifuge tubes with 250 µL of 100% ethanol and mixed with a vortex. Samples were spun in spin cartridges (Invitrogen) at 12,000 × g for 15 s at room temperature, and the flow-through was discarded. A total of 700 µL Wash Buffer I (Invitrogen) was added and spun at 12,000 × g for 15 s at room temperature, and the flow-through was discarded. A total of 500 µL Wash Buffer II (Invitrogen) with ethanol was added and centrifuged for 12,000 × g for 15 s at room temperature; the flow-through was discarded, and RNA samples were washed again. Cells were spun at 12,000 × g for 1 min at room temperature to dry the membrane with the bound RNA. A total of 50 µL RNAse-free water was added to the center of the spin cartridge, incubated at room temperature for 1 min, and centrifuged for 2 min at ≥12,000 × g at room temperature. Extracted RNA was then frozen at −80°C until further use.
# Bulk RNA was sent to SeqCenter (Pittsburgh, PA) where it was processed for paired-end Illumina sequencing via rRNA depletion using Ribo-Zero Plus (Illumina). Fastq files generated by SeqCenter were processed using Rockhopper with default settings ([61][–][63]). Briefly, fastq files were aligned to the genome of Pseudomonas aeruginosa UCBPP-PA14. The reads were subsequently normalized using upper-quartile normalization, and transcript abundance was determined by reads per kilobase per million mapped reads. Differential gene expression analysis was conducted using a negative binomial distribution model, outputting a P-value for each transcript. The P-values were then corrected for false discovery using the Benjamini-Hochberg procedure, resulting in the q-values reported here (Table S2). SignalMap v2.0 (NimbleGen Systems) was used to visualize read counts for phzABCDEFG1/2, phzH, phzM, and phzS (Fig. 5). Aligned sequences generated in Rockhopper were converted to GFF files, and genes of interest were isolated into unique GFF files ([37]).
compound,measurement,setting,value
"CCCC(=O)N[C@H]1CCOC1=O [C4HSL, N-butyryl-L-homoserine lactone]",chiC Expression value,,"3,525,171.5"
same,fhp Expression value,,"641,438"
same,hcnA Expression value,,"44,841"
same,katA Expression value,,"14,093,439.5"
same,katB Expression value,,"3,028,118.5"
same,lasB Expression value,,"19,914,902.5"
same,lecB Expression value,,"366,190"
same,mexG Expression value,,"516,840.5"
same,mexH Expression value,,"903,148"
same,mexI Expression value,,"920,093.5"
same,mvfR Expression value,,"301,183"
same,norB Expression value,,"6,989,112.5"
same,norC Expression value,,"3,120,586.5"
same,opmD Expression value,,"631,843.5"
same,phnA Expression value,,"1,160,599.5"
same,phnB Expression value,,"350,722"
same,phzA1 Expression value,,"15,501"
same,phzA2 Expression value,,"238,645"
same,phzB1 Expression value,,"218,602.5"
same,phzB2 Expression value,,"4,517,504"
same,phzC1 Expression value,,"655,136.5"
same,phzC2 Expression value,,"4,730,067"
same,phzD1 Expression value,,"2,329,509"
same,phzD2 Expression value,,"2,063,245.5"
same,phzE1 Expression value,,"4,232,986.5"
same,phzE2 Expression value,,"3,213,651.5"
same,phzF1 Expression value,,"1,981,300.5"
same,phzF2 Expression value,,"1,982,482"
same,phzG1 Expression value,,"560,110.5"
same,phzG2 Expression value,,"2,035,315"
same,phzM Expression value,,"184,602"
same,phzS Expression value,,"726,300.5"
same,pqsA Expression value,,"1,089,687.5"
same,pqsB Expression value,,"2,286,881.5"
same,pqsC Expression value,,"2,211,818.5"
same,pqsD Expression value,,"2,409,895"
same,pqsE Expression value,,"1,210,331"
same,rhlA Expression value,,"1,118,561.5"
same,rhlB Expression value,,"1,056,112.5"
same,rhlR Expression value,,"1,082,023"
same,chiC Log2fold change,vs ΔrhlI without AHL,4.67
same,fhp Log2fold change,vs ΔrhlI without AHL,6.375
same,hcnA Log2fold change,vs ΔrhlI without AHL,0.4821
same,katA Log2fold change,vs ΔrhlI without AHL,2.183
same,katB Log2fold change,vs ΔrhlI without AHL,7.942
same,lasB Log2fold change,vs ΔrhlI without AHL,2.638
same,lecB Log2fold change,vs ΔrhlI without AHL,0.03694
same,mexG Log2fold change,vs ΔrhlI without AHL,6.993
same,mexH Log2fold change,vs ΔrhlI without AHL,6.553
same,mexI Log2fold change,vs ΔrhlI without AHL,5.716
same,mvfR Log2fold change,vs ΔrhlI without AHL,0.3556
same,norB Log2fold change,vs ΔrhlI without AHL,7.423
same,norC Log2fold change,vs ΔrhlI without AHL,7.283
same,opmD Log2fold change,vs ΔrhlI without AHL,6.473
same,phnA Log2fold change,vs ΔrhlI without AHL,−0.9963
same,phnB Log2fold change,vs ΔrhlI without AHL,−0.7095
same,phzA1 Log2fold change,vs ΔrhlI without AHL,−0.9521
same,phzA2 Log2fold change,vs ΔrhlI without AHL,4.504
same,phzB1 Log2fold change,vs ΔrhlI without AHL,−0.627
same,phzB2 Log2fold change,vs ΔrhlI without AHL,4.419
same,phzC1 Log2fold change,vs ΔrhlI without AHL,1.576
same,phzC2 Log2fold change,vs ΔrhlI without AHL,4.692
same,phzD1 Log2fold change,vs ΔrhlI without AHL,3.417
same,phzD2 Log2fold change,vs ΔrhlI without AHL,3.452
same,phzE1 Log2fold change,vs ΔrhlI without AHL,3.384
same,phzE2 Log2fold change,vs ΔrhlI without AHL,3.413
same,phzF1 Log2fold change,vs ΔrhlI without AHL,3.113
same,phzF2 Log2fold change,vs ΔrhlI without AHL,3.107
same,phzG1 Log2fold change,vs ΔrhlI without AHL,1.459
same,phzG2 Log2fold change,vs ΔrhlI without AHL,4.193
same,phzM Log2fold change,vs ΔrhlI without AHL,−0.9094
same,phzS Log2fold change,vs ΔrhlI without AHL,−0.04329
same,pqsA Log2fold change,vs ΔrhlI without AHL,−1.279
same,pqsB Log2fold change,vs ΔrhlI without AHL,−0.7204
same,pqsC Log2fold change,vs ΔrhlI without AHL,−0.7931
same,pqsD Log2fold change,vs ΔrhlI without AHL,−0.874
same,pqsE Log2fold change,vs ΔrhlI without AHL,−1.056
same,rhlA Log2fold change,vs ΔrhlI without AHL,2.147
same,rhlB Log2fold change,vs ΔrhlI without AHL,2.998
same,rhlR Log2fold change,vs ΔrhlI without AHL,0.762
